Target: MAPK14 (human) (UniProt Q16539)
Experiment: Inhibition of MAPK14 Kinase Activity
Settings: for inhibition: concentration not given here

Sequence of MAPK14 (human) (Q16539 whole entry, looked up): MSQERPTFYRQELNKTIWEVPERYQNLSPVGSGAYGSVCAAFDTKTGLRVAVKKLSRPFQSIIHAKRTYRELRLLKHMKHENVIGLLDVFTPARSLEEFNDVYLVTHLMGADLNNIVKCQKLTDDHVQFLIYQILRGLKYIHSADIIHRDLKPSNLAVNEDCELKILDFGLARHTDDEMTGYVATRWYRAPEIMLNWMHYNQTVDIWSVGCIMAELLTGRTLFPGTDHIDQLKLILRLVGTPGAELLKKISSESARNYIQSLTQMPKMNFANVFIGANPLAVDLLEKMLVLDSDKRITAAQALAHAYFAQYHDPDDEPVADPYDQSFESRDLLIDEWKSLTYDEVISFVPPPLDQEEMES

Structure (SMILES)	IC50	inhibition
CON(C)C(=O)CC1(C)C(=O)NCCN1C(=O)c1cc(C(C)(C)C)sc1NC(=O)Nc1ccc(F)c(Cl)c1Cl (stereo not drawn)	< 5 µM	–
CC(C)(C)c1cc(C(=O)N2CCNC(=O)C2(C)C)c(NC(=O)Nc2ccc(C#N)c3ccccc23)s1	< 5 µM	–
CN(C)CCN1CCN(C(=O)c2cc(C(C)(C)C)sc2NC(=O)Nc2ccccc2C(F)(F)F)CCC1=O	< 5 µM	–
CCc1ccccc1NC(=O)Nc1sc(C(C)(C)C)cc1C(=O)N1CCC(=O)N(CCN(C)C)CC1	< 5 µM	–
CC(C)(C)c1cc(C(=O)N2CCNC(=O)CC2)c(NC(=O)Nc2ccccc2C(F)(F)F)s1	< 5 µM	–
CCC1(C)C(=O)N(CC(=O)NCCN(C)C)CCN1C(=O)c1cc(C(C)(C)C)sc1NC(=O)Nc1cccc(Cl)c1Cl (stereo not drawn)	< 5 µM	–
CC(C)(C)c1cc(C(=O)N2CCNC(=O)C2(C)C)c(NC(=O)Nc2cccc(Cl)c2Cl)[nH]1	< 5 µM	–
CN(C)CCNC(=O)CN1CCN(C(=O)c2sc(C(C)(C)C)cc2NC(=O)Nc2ccnc(Cl)c2Cl)C(C)(C)C1=O	< 5 µM	–
Cc1ccccc1NC(=O)Nc1sc(C(C)(C)C)cc1C(=O)N1CCC(=O)N(CCN(C)C)CC1	< 5 µM	–
CC(C)(C)c1cc(C(=O)N2CCNC(=O)CC2)c(NC(=O)Nc2ccc3ncoc3c2)s1	–	76 to 100%
CC(C)(C)c1cc(C(=O)N2CCNC(=O)CC2)c(NC(=O)Nc2cccnc2Cl)s1	< 5 µM	–
COc1ccc(NC(=O)Nc2sc(C(C)(C)C)cc2C(=O)N2CCNC(=O)CC2)cc1Cl	–	76 to 100%
COC(=O)N1CCN(C(=O)c2cc(C(C)(C)C)sc2NC(=O)Nc2cccc(Cl)c2Cl)CC1	< 5 µM	–
CCC1(C)C(=O)NCCN1C(=O)c1cc(C(C)(C)C)sc1NC(=O)Nc1cccc(Cl)c1Cl (stereo not drawn)	< 5 µM	–
CN(C)CCN1CCN(C(=O)c2cc(C(C)(C)C)sc2NC(=O)Nc2c(Cl)cncc2Cl)C(C)(C)C1=O	< 5 µM	–
CC(C)(C)c1cc(C(=O)N2CCNC(=O)CC2)c(NC(=O)Nc2ccc(F)c(F)c2Cl)s1	< 5 µM	–
CC(C)(C)c1cc(C(=O)N2CCNC(=O)CC2)c(NC(=O)Nc2ccc(Cl)cc2Cl)s1	< 5 µM	–
CC(C)(C)c1cc(C(=O)N2CCNC(=O)CC2)c(NC(=O)Nc2cccc3c2OCO3)s1	< 5 µM	–
CC(C)(C)c1cc(NC(=O)Nc2cccc(Cl)c2Cl)c(C(=O)N2CCNS(=O)(=O)CC2)o1	< 5 µM	–
CC(C)(C)c1cc(C(=O)N2CCNC(=O)CC2)c(NC(=O)Nc2ccccc2Cl)s1	< 5 µM	–
CC(C)(C)c1cc(NC(=O)Nc2cccc(Cl)c2Cl)c(C(=O)N2CCNC(=O)C2(C)C)s1	< 5 µM	–
CC(C)(C)c1cc(C(=O)N2CCNC(=O)C2CC(N)=O)c(NC(=O)Nc2cccc(Cl)c2Cl)s1 (stereo not drawn)	< 5 µM	–
CON(C)C(=O)CN1CCN(C(=O)c2[nH]c(C(C)(C)C)cc2NC(=O)Nc2cccc(Cl)c2Cl)C(C)(C)C1=O	< 5 µM	–
CC(C)(C)c1cc(C(=O)N2CCNC(=O)C2(C)C)c(NC(=O)Nc2ccncc2Cl)s1	< 5 µM	–
CN(C)CCN1CCN(C(=O)c2cc(C(C)(C)C)sc2NC(=O)Nc2ccccc2C(C)(C)C)CCC1=O	< 5 µM	–
CN1CCN(C(=O)c2cc(C(C)(C)C)n(C)c2NC(=O)Nc2cccc(Cl)c2Cl)C(C)(C)C1=O	< 5 µM	–
CC1(C)OCC(CN2CCN(C(=O)c3cc(C(C)(C)C)sc3NC(=O)Nc3cccc(Cl)c3Cl)CCC2=O)O1 (stereo not drawn)	–	76 to 100%
CC(C)(C)c1cc(C(=O)N2CCNC(=O)CC2)c(NC(=O)Nc2ccc3c(c2Cl)OCO3)s1	< 5 µM	–
